This note sets out measurements from PMC9376960, “Ruthenium(II)–Tris-pyrazolylmethane Complexes Inhibit Cancer Cell Growth by Disrupting Mitochondrial Calcium Homeostasis” (Journal of Medicinal Chemistry, 2022).

For one data set, the system named is MCF-7. Put plainly: MTT antiproliferative assay. Type of data set: cell-based, human. The following applies: 72 h, mean ± SD. Here is the method: (§1) All of the cell lines were cultivated in DMEM medium (high glucose 4.5 g L^–1, PAA, Pasching, Austria) supplemented with gentamycin (50 μg mL^–1, Serva, Heidelberg, Germany) and 10% heat-inactivated fetal bovine serum (PAA). The medium for MRC5pd30 cells was further supplemented by 1% nonessential amino acids (Sigma-Aldrich, Prague, Czech Republic). All cells were cultured as adherent monolayers in a humidified incubator at 37 °C in a 5% CO2 atmosphere and subcultured twice a week with an appropriate plating density.
(§2) In vitro antiproliferative activity of Ru complexes was determined by the MTT or, alternatively, SRB assay as already described,[84] after 72 h of incubation of cells with various concentrations of the Ru complex. The reported IC50 values are an average of three independent experiments, each consisting of three replicates per concentration.

The subject of data set [1] is HCT116. In words: MTT antiproliferative assay. Format: cell-based, human. Particulars: 72 h, mean ± SD. Here is the method:
as §1, §2
(Tetrazolium assays rely on reduction of a dye to a coloured formazan, in cell work by metabolically active cells.)

In a further data set the test system is 518A2. Put plainly: MTT antiproliferative assay. Particulars: 72 h, mean ± SD. Type of data set: cell-based, human. The method, then:
as §1, §2

The next data set relates to HeLa. In words: MTT antiproliferative assay. Format: cell-based, human. Particulars: 72 h, mean ± SD. Here is the method: as §1, §2
Data set [2] relates to HCT116 cells. Put plainly: Calcium flux, Rhod-2 and Fluo-4 probes. Type of data set: cell-based, human. The following applies: for effect on Ca2+ flux into the mitochondria induced by ionomycin: 2.5 h pretreatment, 10 μM (1 also 2.5, 5 μM), Rhod-2, 5 μM ionomycin. Here is the method:
The distribution of calcium ions in cytosol and mitochondria was studied using calcium-sensitive fluorescent probes. HCT116 cells were seeded at a density of 2 × 10^5 cells/well on six-well plates. After overnight cultivation, the cells were treated with Ru complexes at indicated concentrations for 2.5 h. The culture medium was then replaced with either 5 μM Rhod-2 or Fluo-4 in PBS supplemented with 2 mM CaCl2 and incubated for 30 min at 37 °C. At last, cells were harvested and suspended in PBS (with 2 mM CaCl2) or in PBS (with 2 mM CaCl2) supplemented with ionomycin (5 μM) for 30 min at 37 °C and analyzed using a BD FACSverse flow cytometer.

Data set [3] deals with HCT116. Put plainly: SRB antiproliferative assay. Format: cell-based, human. Particulars: SRB test, 72 h; mean ± SD. The method, then: as §2
A further data set deals with CHO-K1. Put plainly: MTT assay, wild-type cells. Format: cell-based, Chinese hamster. The following applies: 72 h. The text has this:
(§3) The human cervical carcinoma HeLa cells and human colorectal carcinoma cells HCT116 were kindly supplied by Professor B. Keppler, University of Vienna (Austria). Human rhabdomyosarcoma RD cells were purchased from the American Type Culture Collection (ATCC, Manassas, VA). Human breast cancer MCF-7 cells, human skin melanoma 518A2 cells, and human MRC5pd30 cells derived from normal lung tissue were purchased from the European Collection of Authenticated Cell Cultures (ECACC) (Salisbury, U.K.). Chinese hamster ovary CHO-K1 cell line (wild type) and its derivative MMC-2 carrying the ERCC3/XPB mutation (NER-deficient) cell line were kindly supplied by Dr. […], Cancer Research Institute, Slovak Academy of Sciences, Bratislava (Slovakia). In vitro antiproliferative activity of Ru complexes was determined by the MTT or, alternatively, SRB assay as already described,[84] after 72 h of incubation of cells with various concentrations of the Ru complex. The reported IC50 values are an average of three independent experiments, each consisting of three replicates per concentration.

In data set [4] the test system is HCT116 cells. Put plainly: Confocal microscopy imaging of actin and tubulin. Type of data set: cell-based, human. Particulars: 24 h at IC50. The method, then: HCT116 cells were seeded on coverslips precoated with 0.1% gelatin in six-well culture plates at a density of 1 × 10^5 cells/well. […] Following the treatment, the cells were washed with PBS, fixed with 4% p-formaldehyde, washed, permeabilized with 0.1% Triton X-100, and blocked. Samples for actin staining were blocked with 1.5% BSA for 1 h and then stained with Alexa Fluor 488-conjugated Phalloidin (Thermo Fisher Scientific, 1:50 dilution, 20 min). Samples for tubulin staining were blocked with 5% goat serum for 1 h and incubated with primary antibody (anti-α-tubulin, Abcam, 1:200 dilution, 1 h) and Alexa Fluor-conjugated secondary antibody (goat antirabbit, Abcam, 1:500 dilution, 1 h). Both groups of samples were mounted with ProLong Diamond Antifade Mountant with DAPI (Invitrogen). Cells were visualized on a confocal microscope Leica TCS SP8 SMD.

The test system of data set [5] is cancer cell lines (MCF-7, HeLa, 518A2, HCT116, RD) vs noncancerous MRC-5pd30. Put plainly: MTT panel: average IC50 of cancer cell lines and selectivity index. Format: cell-based, human. The following applies: for SI (selectivity index): IC50 for noncancerous MRC-5pd30 vs the average IC50 value of cancer cell lines; for IC50: average of IC50 values related to cancer cell lines. Here is the method: as §2

For another data set, the system named is MMC-2. In words: MTT assay, NER-deficient cells. Particulars: 72 h. Type of data set: cell-based, Chinese hamster.
Text: as §3

The subject of a further data set is RD. Put plainly: MTT antiproliferative assay. Format: cell-based, human. Particulars: 72 h, mean ± SD. Here is the method:
as §1, with “density. In vitro antiproliferative activity of Ru complexes was determined by the MTT or, alternatively, SRB assay as already described,[84] after 72 h of incubation of cells with various concentrations of the Ru complex. The reported IC50 values are an average of three independent experiments, each consisting of three replicates per concentration.” for “density.”

For data set [6], the system named is HCT116 cells. Put plainly: Cellular uptake of Ru (ICP-MS). Type of data set: cell-based, human. Particulars: HCT116, 15 μM, 24 h; mean ± SEM. The method, then:
In these experiments, 1 × 10^6 HCT116 cells were seeded on 100 mm Petri dishes. After overnight preincubation in a drug-free medium, the cells were treated with the Ru complexes (15 μM) for 24 h. Afterward, the cells were extensively washed with PBS (37 °C), detached using 0.25% trypsin, washed twice with ice-cold PBS, and counted by an automatic cell counter. The cell pellets were digested using a microwave acid (HCl) digestion system (CEM Mars). The quantity of Ru taken up by the cells was determined by inductively coupled plasma mass spectrometry (ICP-MS). All experiments were carried out in triplicate.

For a further data set, the system named is MRC5pd30. In words: MTT assay on noncancerous cells. Format: cell-based, human. Particulars: 72 h, mean ± SD. The method, then:
as §1, §2

By IC50 is commonly meant the concentration that gives 50% inhibition. Higher therefore signals weaker potency in that assay.

As to [RuCl(κ^3-tpm)(PPh3)2]Cl [compound 1], the half-inhibitory concentration (IC50) with MCF-7 is 2.4 ± 0.6 µM; in the data set with HCT116 [1] it was 1.5 ± 0.1 µM; with 518A2 it was 2.6 ± 0.4 µM; in the data set with HeLa, 4 ± 0.4 µM; with HCT116 [3] it was 0.45 ± 0.05 µM; in the data set on CHO-K1 it was 6.3 ± 0.2 µM. The IC50 in [5] amounted to 2.5 ± 0.3 µM; with MMC-2, 7.7 ± 0.2 µM; in the data set on RD it was 2.2 ± 0.2 µM; with MRC5pd30, 5.8 ± 0.7 µM. The “increase in the concentration of Ca2+ in the cytoplasm” value in the data set with HCT116 cells [2] (2.5 h, 10 μM, Fluo-4) is “most prominent”. Moreover, the “effect on Ca2+ flux into the mitochondria induced by ionomycin” value (from here on “effect … by ionomycin”) in the data set with HCT116 cells [2] is “reduced Ca^2+ flux into the mitochondria”. For the same substance, in the data set with HCT116 cells [4], the “effect on structure, shape, and layout of tubulin and actin networks” value (from here on “effect on structure, shape, and layout”) is reported as “did not significantly affect”. For the same substance, the “SI (selectivity index)” value in data set [5] is given as 2.3. Also, the “Accumulation of ruthenium, ng Ru/10^6 cells” value (shortened to “Accumulation of ruthenium”) in the data set on HCT116 cells [6] is given as 145.1 ± 5.9 ng Ru/10^6 cells.

For “[RuCl(κ^3-tpm)(PPh3)(CNCy)]Cl [compound 8]”, the IC50 was determined as 10 ± 2 µM in the data set on MCF-7; 8 ± 2 µM in the data set on HCT116 [1]; 10 ± 2 µM with 518A2; 15 ± 1 µM in the data set on HeLa; 5.2 ± 0.5 µM in the data set on HCT116 [3]; 16 ± 4 µM with CHO-K1. Besides, the IC50 in [5] stood at 9.9 ± 1.5 µM; in the data set on MMC-2, 16 ± 3 µM; in the data set on RD, 6.6 ± 0.7 µM; in the data set on MRC5pd30 it was 19.7 ± 0.4 µM. In addition, the “effect … by ionomycin” value with HCT116 cells [2] is “less pronounced”. Further, the “effect on structure, shape, and layout” value with HCT116 cells [4] is given as “did not significantly affect”. The “SI (selectivity index)” value in data set [5] was 2.0. The “Accumulation of ruthenium” value in the data set with HCT116 cells [6] worked out at 59.4 ± 0.6 ng Ru/10^6 cells.

As to “[RuCl(κ^3-tpm)(PPh3){NCHN(Me)(CH)2}]Cl [compound 3]”, the IC50 turned out to be 38 ± 8 µM with MCF-7; 25 ± 1 µM with HCT116 [1]; 33 ± 5 µM in the data set on 518A2; 91 ± 3 µM with HeLa; 16 ± 2 µM in the data set on HCT116 [3]; 42.8 ± 4.2 µM in data set [5]. The IC50 in the data set with RD was 27 ± 4 µM; in the data set on MRC5pd30, 83.6 ± 0.5 µM. Also, the “SI (selectivity index)” value in data set [5] came out at 2.0. Besides, in the data set with HCT116 cells [6], the “Accumulation of ruthenium” value amounted to 66.1 ± 8.0 ng Ru/10^6 cells.

As to “[RuCl(κ^3-tpm)(PPh3){CNCH2P(O)(OEt2)2}]Cl [compound 9]”, the IC50 is 43 ± 7 µM in the data set on MCF-7; 35 ± 6 µM in the data set on HCT116 [1]; 38 ± 7 µM in the data set with 518A2; 36 ± 2 µM with HeLa; 29 ± 3 µM in the data set on HCT116 [3]; 35.2 ± 5 µM in data set [5]. Further, the IC50 in the data set on RD came to 24 ± 3 µM; in the data set on MRC5pd30, 50.8 ± 0.4 µM. The “effect … by ionomycin” value in the data set on HCT116 cells [2] is reported as “insignificant”. In [5], the “SI (selectivity index)” value is given as 1.5. In addition, the “Accumulation of ruthenium” value in the data set on HCT116 cells [6] is given as 16.2 ± 1.4 ng Ru/10^6 cells.

“[RuCl(κ^3-tpm)(PPh3){P(OMe)3}]Cl [compound 7]”: the IC50 with MCF-7 came to 6 ± 1 µM; with HCT116 [1] it was 6.7 ± 0.4 µM; in the data set on 518A2, 6.8 ± 0.8 µM; in the data set with HeLa, 10 ± 2 µM; in the data set with HCT116 [3], 5.8 ± 0.6 µM; with CHO-K1 it was 25.6 ± 0.5 µM. In addition, the IC50 in [5] was found to be 7.1 ± 1 µM; in the data set on MMC-2, 33 ± 2 µM; in the data set with RD, 6 ± 1 µM; in the data set with MRC5pd30 it was 24 ± 1 µM. Further, the “effect … by ionomycin” value with HCT116 cells [2] was “less pronounced”. Further, in the data set with HCT116 cells [4], the “effect on structure, shape, and layout” value is listed as “did not significantly affect”. For the same substance, the “SI (selectivity index)” value in data set [5] came to 3.4. The “Accumulation of ruthenium” value in the data set on HCT116 cells [6] turned out to be 63.3 ± 6.0 ng Ru/10^6 cells.
